# Measured values reported in patent US11628198B2, “Methods for prevention and treatment of acute renal injury” (Cornell University, priority 2008, dated 2023).
# Marks after values point to notes of the source that are not given here. Non-standard residues stand in square brackets, D forms with d. No end group written: not given here.
# Tests used:
# CIN in patients = conditions: 443 patients randomly assigned; cited from earlier work
# [1] = system: ARI caused by ischemia-reperfusion (I/R); assay: I/R model: TUNEL assay for apoptosis; type: in vivo, rat; conditions: 30 min ischemia and 24 h reperfusion; 3 mg/kg
# Protocol: (§1) Sprague Dawley rats (250˜300 g) were assigned to four groups: (1) sham surgery group without I/R; (2) I/R+saline vehicle treatment; (3) I/R+SS-20 treatment; (4) I/R+SS-31 treatment. Each experimental group consisted of 8 rats. SS-20 and SS-31 (3 mg/kg, dissolved in saline) were administered to rats 30 min before ischemia and immediately before onset of reperfusion. The control rats were given saline alone on the same schedule.
# (§2) Rats were anesthetized with a mixture of ketamine (90 mg/kg, i.p.) and xylazine (4 mg/kg, i.p.). The left renal vascular pedicle was occluded temporarily using a micro-clamp for 30 or 45 min. At the end of the ischemic period, reperfusion was established by removing of the clamp. At that time, the contralateral right kidney was removed. After 24 h reperfusion, animals were sacrificed and blood samples were obtained by cardiac puncture. Renal function was determined by blood urea nitrogen (BUN) and serum creatinine (BioAssay Systems DIUR-500 and DICT-500).
# TUNEL Assay for Apoptosis: Renal tissue sections were deparaffinized and rehydrated by xylenes, graded alcohol series and deionized H2O, and then incubated in 20 μg/ml proteinase K for 20 min at RT. In situ cell death detection POD kit (Roche, IN, USA) was used according to the manufacturer's instructions. […]
# [2] = system: ARI caused by ischemia-reperfusion (I/R); assay: I/R model: renal morphologic examination (H&E, PAS); type: in vivo, rat; conditions: 45 min ischemia and 24 h reperfusion
# Protocol: as §1, §2
# Renal Morphologic Examination: Kidneys were fixed in 10% neutral-buffered formalin and embedded in paraffin wax. Three micron sections were stained with hematoxylin-eosin (H&E) and periodic acid-Schiff (PAS) and analyzed by light microscopy. Lesions were scored using the following criteria: [1] mitosis and necrosis of individual cells; [2] necrosis of all cells in adjacent proximal convoluted tubules with survival of surrounding tubules; [3] necrosis confined to the distal third of the proximal convoluted tubule with a band of necrosis extending across the inner cortex; and [4] necrosis affecting all three segments of the proximal convoluted tubule.
# [3] = system: ATP content in renal tissue; assay: I/R model: ATP content assay of kidney tissue; type: in vivo, rat
# Protocol: as §1, §2
# ATP Content Assay: The kidney tissue was immediately put into 10 ml 5% trichloroacetic acid with 10 mM DTT, 2 mM EDTA and cut into small pieces. The tissue was homogenized on ice, incubated for another 10 min, centrifuged for 10 min at 2000×g, and neutralized with 10N KOH to pH 7.6. After centrifugation for 10 min at 2000×g, aliquots of the resulting supernatant were stored at −80° C. ATP was measured by bioluminescence (ATP bioluminescent kit, Sigma, MO, USA).
# renal mitochondria = assay: I/R model: respiration of isolated renal mitochondria; type: in vivo, rat; conditions: after 45 min ischemia, pretreatment
# Protocol: Results. The effects of the aromatic-cationic peptides of the invention on a model of ARI caused by ischemia-reperfusion were investigated. Renal mitochondria were isolated in accordance with the procedures described above and oxygen consumption was measured.
# State 3 respiration was initiated with the addition of ADP.
# [4] = system: ARI caused by ischemia-reperfusion (I/R); assay: I/R model of ARI: BUN and serum creatinine; type: in vivo, rat; conditions: 45 min ischemia and 24 h reperfusion; 3 mg/kg 30 min before ischemia and before reperfusion
# Protocol: as §1, §2
# BUN and serum creatinine were assayed using kits from BioAssay Systems (DIUR-500 and DICT-500). […] The # indicates p<0.05 from the IR=saline group.
Compound,incidence of CIN (CIN in patients) [%],TUNEL-positive cells in the medulla (tubular cell apoptosis) [1],histopathological score [2],"tubular cell injury (H&E, PAS) [2]","ATP content in renal tissue ([3]; 1 h reperfusion following 45 min ischemia, vs vehicle)",ATP content in renal tissue ([3]; end of 15 min ischemia),renal mitochondrial oxygen consumption (state 3 respiration) (renal mitochondria),BUN [4],serum creatinine [4]
"C[C@H](O)C(=O)Nc1c(I)c(C(=O)NC(CO)CO)c(I)c(C(=O)NC(CO)CO)c1I [Iopamidol (Isovue 370), Iopamidol]",8.2,,,,,,,,
F[dR]FK-NH2 [SS-20],,significantly prevented TUNEL-positive cells,significantly improved histopathological score,protected brush border and prevented necrosis in the proximal tubules,significantly higher,not altered,significantly improved oxygen consumption,130.7 ± 5.5# mg/dl,1.06 ± 0.11# mg/dl
